≈ marks a conversion by molar mass, not a printed value. Starred links: 1 amine or outer side, 2 acyl side, 3 side chain; linkers in the order of their positions; H or OH if unused. Positions of bridges follow the written chain, without caps; N, C: chain ends. Residues, ends and D or L forms follow the SMILES beside them. 2,2'Bipyridine(5,5'-diCH2) = c1cc(-c2ccc(C[*:2])cn2)ncc1C[*:1]; Biphenyl(4,4'-CH2)2 = c1cc(-c2ccc(C[*:2])cc2)ccc1C[*:1]; Naphthalene(2,6-diCH2) = c1cc2cc(C[*:2])ccc2cc1C[*:1]; mXylylene = c1cc(C[*:1])cc(C[*:2])c1; pXylylene = c1cc(C[*:2])ccc1C[*:1]; X1 = C(=CC[*:2])C[*:1]
experiment: 48 hours cytotoxicity assay (CellTiter-Glo), liver toxicity; type: cell-based, human; conditions: not given
Text: In some embodiments, a peptide provided herein has hepatic toxicity that is at least 10% (e.g., at least 15%, at least 20%, at least 25%, at least 30%, at least 35%, at least 40%, at least 45%, at least 50%, at least 55%, at least 60%, at least 65%, at least 65%, at least 70%, at least 75%, at least 80%, at least 85%, at least 90%, at least 95%, at least 99%) lower than the hepatic toxicity of the reference. The hepatic toxicity of a peptide can be measured in vitro using a human liver cells (e.g., HepG2) toxicity assay.
Cell culture: RPTEC were maintained in MEM media supplemented with growth factors. HEPG2 cell line was maintained in Eagle's Minimum Essential Medium (EMEM) supplemented with fetal bovine serum to a final concentration of 10%.
48 hours cytotoxicity assay: Cells were plated in a 96-well format, and after 4 hour incubation to allow attachment, serial dilutions of StAMPs from a 5 mg/mL water stock, or vehicle, were then added to the cells in a final volume of 100 μl. After incubating at 37° C. for 48 hours, 100 μl of CellTiter-Glo® reagent was added to the cells, and the plates were incubated 10 minutes at room temperature. Luminescence was then measured on a microplate reader.
Renal toxicity was measured after 90 minutes of incubation, while liver toxicity was measured after 48 hours of incubation with StAMPs. N/A=not tested.

**Q.** For `CC[C@H](C)[C@H](NC(=O)[C@H](CC(C)C)NC(=O)[C@H](CC(C)C)NC(=O)[C@H](CC(N)=O)NC(=O)[C@H](CCCCN)NC(=O)[C@@H](NC(=O)[C@H](CCCCN)NC(=O)[C@H](CCCCN)NC(=O)CNC(=O)[C@H](C)NC(=O)[C@@H]1CSCc2cccc(c2)CSC[C@H](NC(=O)CN)C(=O)N[C@@H](Cc2ccccc2)C(=O)N[C@@H](CO)C(=O)N[C@@H](CCCCN)C(=O)N1)[C@@H](C)CC)C(=O)N[C@@H](CO)C(=O)NCC(=O)N[C@@H](CC(C)C)C(=O)N[C@@H](CCCCN)C(=O)NCC(N)=O` [compound 46] (H-GCFSKCAGKKIKNLLISGLKG-NH2; linker 2-6 via mXylylene; N-terminus assumed), which IC50 is on record?
**A.** 201 µg/mL (≈ 88.7 µM)

**Q.** Which IC50 does the source give for `CC[C@H](C)[C@H](NC(=O)[C@H](CC(C)C)NC(=O)[C@H](CC(C)C)NC(=O)[C@H](CC(N)=O)NC(=O)[C@H](CCCCN)NC(=O)[C@@H](NC(=O)[C@H](CCCCN)NC(=O)[C@H](CCCCN)NC(=O)CNC(=O)[C@H](C)NC(=O)[C@@H]1CSCc2ccc(cc2)CSC[C@H](NC(=O)CN)C(=O)N[C@@H](Cc2ccccc2)C(=O)N[C@@H](CO)C(=O)N[C@@H](CCCCN)C(=O)N1)[C@@H](C)CC)C(=O)N[C@@H](CO)C(=O)NCC(=O)N[C@@H](CC(C)C)C(=O)N[C@@H](CCCCN)C(=O)NCC(N)=O` [compound 47] (H-GCFSKCAGKKIKNLLISGLKG-NH2; linker 2-6 via pXylylene; N-terminus assumed) here?
**A.** 402 µg/mL (≈ 177 µM)

**Q.** For `CC[C@H](C)[C@H](NC(=O)[C@H](CC(C)C)NC(=O)[C@H](CC(C)C)NC(=O)[C@H](CC(N)=O)NC(=O)[C@H](CCCCN)NC(=O)[C@@H](NC(=O)[C@H](CCCCN)NC(=O)[C@H](CCCCN)NC(=O)CNC(=O)[C@H](C)NC(=O)[C@@H]1CSCC=CCSC[C@H](NC(=O)CN)C(=O)N[C@@H](Cc2ccccc2)C(=O)N[C@@H](CO)C(=O)N[C@@H](CCCCN)C(=O)N1)[C@@H](C)CC)C(=O)N[C@@H](CO)C(=O)NCC(=O)N[C@@H](CC(C)C)C(=O)N[C@@H](CCCCN)C(=O)NCC(N)=O` [compound 48] (H-GCFSKCAGKKIKNLLISGLKG-NH2; linker 2-6 via X1; N-terminus assumed), which IC50 is on record?
**A.** > 800 µg/mL

**Q.** With `CC[C@H](C)[C@H](NC(=O)[C@H](CC(C)C)NC(=O)[C@H](CC(C)C)NC(=O)[C@H](CC(N)=O)NC(=O)[C@H](CCCCN)NC(=O)[C@@H](NC(=O)[C@H](CCCCN)NC(=O)[C@H](CCCCN)NC(=O)[C@@H]1CSCc2ccc(cc2)-c2ccc(cc2)CSC[C@H](N)C(=O)N[C@@H]([C@@H](C)CC)C(=O)N[C@@H](Cc2ccccc2)C(=O)N[C@@H](CO)C(=O)N[C@@H](CCCCN)C(=O)N[C@@H](CC(C)C)C(=O)N[C@@H](C)C(=O)N1)[C@@H](C)CC)C(=O)N[C@@H](CO)C(=O)NCC(=O)N[C@@H](CC(C)C)C(=O)N[C@@H](CCCCN)C(=O)NCC(N)=O` [compound 51] (H-CIFSKLACKKIKNLLISGLKG-NH2; linker 1-8 via Biphenyl(4,4'-CH2)2; N-terminus assumed) as the compound, how does the IC50 read?
**A.** 102 µg/mL (≈ 41.5 µM)

**Q.** Which IC50 does the source give for `CC[C@H](C)[C@H](NC(=O)CN)C(=O)N[C@@H](Cc1ccccc1)C(=O)N[C@H]1CSCc2ccc(cc2)-c2ccc(cc2)CSC[C@@H](C(=O)N[C@@H](CCCCN)C(=O)N[C@@H](CC(N)=O)C(=O)N[C@@H](CC(C)C)C(=O)N[C@@H](CC(C)C)C(=O)N[C@H](C(=O)N[C@@H](CO)C(=O)NCC(=O)N[C@@H](CC(C)C)C(=O)N[C@@H](CCCCN)C(=O)NCC(N)=O)[C@@H](C)CC)NC(=O)[C@H](CCCCN)NC(=O)[C@H](CCCCN)NC(=O)CNC(=O)[C@H](C)NC(=O)[C@H](CC(C)C)NC(=O)[C@H](CCCCN)NC1=O` [compound 59] (H-GIFCKLAGKKCKNLLISGLKG-NH2; linker 4-11 via Biphenyl(4,4'-CH2)2; N-terminus assumed) here?
**A.** 23 µg/mL (≈ 9.71 µM)

**Q.** For `CC[C@H](C)[C@H](NC(=O)CN)C(=O)N[C@@H](Cc1ccccc1)C(=O)N[C@@H](CO)C(=O)N[C@H]1CSCc2ccc(cc2)-c2ccc(cc2)CSC[C@@H](C(=O)N[C@@H](CC(N)=O)C(=O)N[C@@H](CC(C)C)C(=O)N[C@@H](CC(C)C)C(=O)N[C@H](C(=O)N[C@@H](CO)C(=O)NCC(=O)N[C@@H](CC(C)C)C(=O)N[C@@H](CCCCN)C(=O)NCC(N)=O)[C@@H](C)CC)NC(=O)[C@H]([C@@H](C)CC)NC(=O)[C@H](CCCCN)NC(=O)[C@H](CCCCN)NC(=O)CNC(=O)[C@H](C)NC(=O)[C@H](CC(C)C)NC1=O` [compound 61] (H-GIFSCLAGKKICNLLISGLKG-NH2; linker 5-12 via Biphenyl(4,4'-CH2)2; N-terminus assumed), which IC50 is on record?
**A.** > 200 µg/mL

**Q.** With `CC[C@H](C)[C@H](NC(=O)CN)C(=O)N[C@@H](Cc1ccccc1)C(=O)N[C@@H](CO)C(=O)N[C@@H](CCCCN)C(=O)N[C@@H](CC(C)C)C(=O)N[C@@H](C)C(=O)N[C@H]1CSCc2ccc(cc2)-c2ccc(cc2)CSC[C@@H](C(=O)N[C@H](C(=O)N[C@@H](CO)C(=O)NCC(=O)N[C@@H](CC(C)C)C(=O)N[C@@H](CCCCN)C(=O)NCC(N)=O)[C@@H](C)CC)NC(=O)[C@H](CC(C)C)NC(=O)[C@H](CC(N)=O)NC(=O)[C@H](CCCCN)NC(=O)[C@H]([C@@H](C)CC)NC(=O)[C@H](CCCCN)NC(=O)[C@H](CCCCN)NC1=O` [compound 68] (H-GIFSKLACKKIKNLCISGLKG-NH2; linker 8-15 via Biphenyl(4,4'-CH2)2; N-terminus assumed) as the compound, how does the IC50 read?
**A.** 8 µg/mL (≈ 3.33 µM)

**Q.** With `CC[C@H](C)[C@H](NC(=O)CN)C(=O)N[C@@H](Cc1ccccc1)C(=O)N[C@@H](CO)C(=O)N[C@@H](CCCCN)C(=O)N[C@@H](CC(C)C)C(=O)N[C@@H](C)C(=O)NCC(=O)N[C@H]1CSCc2ccc(cc2)-c2ccc(cc2)CSC[C@@H](C(=O)N[C@@H](CO)C(=O)NCC(=O)N[C@@H](CC(C)C)C(=O)N[C@@H](CCCCN)C(=O)NCC(N)=O)NC(=O)[C@H](CC(C)C)NC(=O)[C@H](CC(C)C)NC(=O)[C@H](CC(N)=O)NC(=O)[C@H](CCCCN)NC(=O)[C@H]([C@@H](C)CC)NC(=O)[C@H](CCCCN)NC1=O` [compound 70] (H-GIFSKLAGCKIKNLLCSGLKG-NH2; linker 9-16 via Biphenyl(4,4'-CH2)2; N-terminus assumed) as the compound, how does the IC50 read?
**A.** 23 µg/mL (≈ 9.88 µM)

**Q.** With `CC[C@H](C)[C@H](NC(=O)CN)C(=O)N[C@@H](Cc1ccccc1)C(=O)N[C@@H](CO)C(=O)N[C@@H](CCCCN)C(=O)N[C@@H](CC(C)C)C(=O)N[C@@H](C)C(=O)NCC(=O)N[C@@H](CCCCN)C(=O)N[C@@H](CCCCN)C(=O)N[C@H]1CSCc2ccc(cc2)-c2ccc(cc2)CSC[C@@H](C(=O)N[C@@H](CC(C)C)C(=O)N[C@@H](CCCCN)C(=O)NCC(N)=O)NC(=O)[C@H](CO)NC(=O)[C@H]([C@@H](C)CC)NC(=O)[C@H](CC(C)C)NC(=O)[C@H](CC(C)C)NC(=O)[C@H](CC(N)=O)NC(=O)[C@H](CCCCN)NC1=O` [compound 76] (H-GIFSKLAGKKCKNLLISCLKG-NH2; linker 11-18 via Biphenyl(4,4'-CH2)2; N-terminus assumed) as the compound, how does the IC50 read?
**A.** 23 µg/mL (≈ 9.59 µM)

same assay, conditions: 48 hours of incubation, CellTiter-Glo; read-out: Inhibitory Concentration at 50% Cytotoxicity (IC50) Human Liver Cells (HepG2)

**Q.** For `CC[C@H](C)[C@H](NC(=O)CN)C(=O)N[C@@H](Cc1ccccc1)C(=O)N[C@@H](CO)C(=O)N[C@H]1CSCc2ccc(nc2)-c2ccc(cn2)CSC[C@@H](C(=O)N[C@@H](CC(N)=O)C(=O)N[C@@H](CC(C)C)C(=O)N[C@@H](CC(C)C)C(=O)N[C@H](C(=O)N[C@@H](CO)C(=O)NCC(=O)N[C@@H](CC(C)C)C(=O)N[C@@H](CCCCN)C(=O)NCC(N)=O)[C@@H](C)CC)NC(=O)[C@H]([C@@H](C)CC)NC(=O)[C@H](CCCCN)NC(=O)[C@H](CCCCN)NC(=O)CNC(=O)[C@H](C)NC(=O)[C@H](CC(C)C)NC1=O` [compound 60] (H-GIFSCLAGKKICNLLISGLKG-NH2; linker 5-12 via 2,2'Bipyridine(5,5'-diCH2)), which IC50 is on record?
**A.** 29 µg/mL (≈ 12.5 µM)

**Q.** Which IC50 does the source give for `CC[C@H](C)[C@H](NC(=O)CN)C(=O)N[C@@H](Cc1ccccc1)C(=O)N[C@@H](CO)C(=O)N[C@H]1CSCc2ccc3cc(ccc3c2)CSC[C@@H](C(=O)N[C@@H](CC(N)=O)C(=O)N[C@@H](CC(C)C)C(=O)N[C@@H](CC(C)C)C(=O)N[C@H](C(=O)N[C@@H](CO)C(=O)NCC(=O)N[C@@H](CC(C)C)C(=O)N[C@@H](CCCCN)C(=O)NCC(N)=O)[C@@H](C)CC)NC(=O)[C@H]([C@@H](C)CC)NC(=O)[C@H](CCCCN)NC(=O)[C@H](CCCCN)NC(=O)CNC(=O)[C@H](C)NC(=O)[C@H](CC(C)C)NC1=O` [compound 62] (H-GIFSCLAGKKICNLLISGLKG-NH2; linker 5-12 via Naphthalene(2,6-diCH2)) here?
**A.** 81 µg/mL (≈ 35.4 µM)

**Q.** For `CC[C@H](C)[C@H](NC(=O)CN)C(=O)N[C@@H](Cc1ccccc1)C(=O)N[C@@H](CO)C(=O)N[C@@H](CCCCN)C(=O)N[C@H]1CSCc2ccc(nc2)-c2ccc(cn2)CSC[C@@H](C(=O)N[C@@H](CC(C)C)C(=O)N[C@@H](CC(C)C)C(=O)N[C@H](C(=O)N[C@@H](CO)C(=O)NCC(=O)N[C@@H](CC(C)C)C(=O)N[C@@H](CCCCN)C(=O)NCC(N)=O)[C@@H](C)CC)NC(=O)[C@H](CCCCN)NC(=O)[C@H]([C@@H](C)CC)NC(=O)[C@H](CCCCN)NC(=O)[C@H](CCCCN)NC(=O)CNC(=O)[C@H](C)NC1=O` [compound 63] (H-GIFSKCAGKKIKCLLISGLKG-NH2; linker 6-13 via 2,2'Bipyridine(5,5'-diCH2)), which IC50 is on record?
**A.** 44 µg/mL (≈ 18.8 µM)

Reference: patent US20240391965A1, “STAPLED ANTIMICROBIAL PEPTIDES (STAMPS) AND USES THEREOF” (Lytica Therapeutics, Inc., priority 2021, published 2024)
